From US20240353338A1 (priority 2023, published 2024)

How the values were obtained:
transthyretin (TTR) = target: T1, transthyretin (TTR) (Homo sapiens, UniProt P02766); type: binding
T1 construct: purchased Sigma Aldrich P1742

SARS-CoV-2 M^pro = SARS-CoV-2 M^pro (Severe acute respiratory syndrome coronavirus 2, UniProt P0DTD1); assay: TRIP screening of M^pro inhibitor binding and binding strength/affinity; conditions: 1 μM vs 5 μM M^pro mixes
streptavidin = streptavidin (Streptomyces avidinii, UniProt P22629); type: binding
Sequence of streptavidin (P22629 37-163): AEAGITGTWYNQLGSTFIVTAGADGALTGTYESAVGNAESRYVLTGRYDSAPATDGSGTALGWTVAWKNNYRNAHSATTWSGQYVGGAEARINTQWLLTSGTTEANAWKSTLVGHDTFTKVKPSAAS

Compound: O=[N+]([O-])c1ccc(O)c([N+](=O)[O-])c1 [DNP, 2,4 dinitrophenol]
- binding between DNP and TTR over time (PC2 of 1230-1350 cm^-1 region) (transthyretin (TTR)): enhanced over time

Compound: Nc1nnc(Sc2ncc([N+](=O)[O-])s2)s1 [Halicin]
- affinity for monomer M^pro versus dimer / dimer-monomer M^pro mix (SARS-CoV-2 M^pro): higher affinity for binding monomeric M^pro

Compound: O=C(O)CCCC[C@@H]1SC[C@@H]2NC(=O)N[C@@H]21 [biotin]
- binding of biotin to streptavidin (Trp N-H band shift 877 to 870 cm^-1) (streptavidin): strong hydrogen bonding occurred
